pIC50: −log10 of the molar value. Like-named read-outs stand apart in the source and are kept apart here.
Assays:
TNF-α = TNF-α activity inhibiting assay (LPS-stimulated peripheral blood, ELISA); assay type: cell-based, human; settings: compound 100 nM, diluted peripheral blood of healthy volunteers, LPS 10 ng/mL, 6 hours; for inhibition at 0.1 µM: Homo sapiens, read-out: Inhibitory Rate on TNF-α (%)
Protocol: TNF-α Activity Inhibiting Assay
Peripheral blood from healthy volunteers was collected and collected with EDTA anticoagulant tubes. After being diluted 5-fold with 1640 medium (Gibco, catalog number 11875-093, USA), the blood was added to 96-well cell culture plates (Costar, catalog number 3599, USA) and then treated with 10 μL solution of the compound of general formula (I) of the present invention in DMSO (Sigma, catalog number D2650, USA). The final concentration of the compound was 100 nM, and the final concentration of DMSO was 0.2%. After incubation for 60 minutes in an incubator at 37° C. under 5% CO2, 10 μL LPS (Sigma, catalog number L-2880, USA) was added to the reaction system, and the final concentration was 10 ng/mL. After further culturing for 6 hours in the incubator at 37° C. under 5% CO2, the supernatant was collected. The content of TNF-α was determined by ELISA (BD Biosciences, catalog number 555212, USA). Absorbance was detected at OD450 nm with a microplate reader, with OD 650 nm as reference. The control, a solution containing 0.2% DMSO medium, was as 0% inhibition. Raw data and standard curves were recorded. The four-parameter drug inhibition curve was plotted by XL-fit software and the inhibition rate of each compound was calculated, as shown in Table 1.

[1] = test system: MM.1S cells (myeloma cells); test: Cell proliferation assay (MTS), MM.1S myeloma cells; assay type: cell-based; settings: 72 hours, read-out: IC50 values of MMIS Inhibition
Protocol: MM.1S cells (myeloma cells) (ATCC, catalog number CRL-2974) were seeded at 1.8×10^3 per well to a 96-well culture plate containing […] (Gibco, catalog number A10491-01), and were incubated in an incubator for 24 hours at 37° C. under 5% CO2. Compounds were prepared as 20 mM stock solutions with DMSO (Sigma, catalog number D2650), and were diluted with the medium to the desired concentration (the final concentration of DMSO was 0.5%) and then were added to each well, incubated in an incubator for 72 hours at 37° C. under 5% CO2. Then, 20 μL MTS (Promega, catalog number G3581) was added to each well, and further incubated for 1-4 hours in an incubator at 37° C. under 5% CO2. OD490 nm was detected with OD650 nm as reference. The control, a solution containing 0.5% DMSO medium, was as 0% inhibition. GraphPad Prism 5 was used, slope was allowed to change to make the dose-effect curve and IC50 values were calculated, shown in table 2 for details.

pIC50 ([1]; Homo sapiens, MM1.S)	pIC50 [1]	SMILES	inhibition at 0.1 µM (TNF-α)	Inhibitory Rate on TNF-α (%) (TNF-α)
> 6.52	–	CNc1cccc(CNc2cccc3c2CN(C2CCC(=O)NC2=O)C3=O)c1F (centres unmarked) [Compound A372, 3-(4-((2-fluoro-3-(methylamino)benzyl)amino)-1-oxoisoindolin-2-yl)piperidine-2,6-dione]	≥ 50%	–
> 6.52	–	[2H][C@]1(N2Cc3c(NCc4ccc(CN5CCOCC5)cc4)cccc3C2=O)CCC(=O)NC1=O [Compound A373, (S)-3-deuterium-3-(4-((4-(morpholinomethyl)benzyl)amino)-1-oxoisoindolin-2-yl)piperidine-2,6-dione]	≥ 50%	–
≤ 6.52	–	O=C1CCC(N2Cc3c(NCc4cc(OCCO)ccc4F)cccc3C2=O)C(=O)N1 (centres unmarked) [Compound A375, 3-(4-((2-fluoro-5-(2-hydroxyethoxy)benzyl)amino)-1-oxoisoindolin-2-yl)piperidine-2,6-dione]	< 50%	–
> 6.52	–	O=C1CCC(N2Cc3c(NCc4cc(OCCN5CCCC5)ccc4F)cccc3C2=O)C(=O)N1 (centres unmarked) [Compound A376, 3-(4-((2-fluoro-5-(2-(pyrrolidin-1-yl)ethoxy)benzyl)amino)-1-oxoisoindolin-2-yl)piperidine-2,6-dione]	≥ 50%	–
≤ 6.52	–	CN1CCN(CCOc2ccc(F)c(CNc3cccc4c3CN(C3CCC(=O)NC3=O)C4=O)c2)CC1 (centres unmarked) [Compound A377, 3-(4-((2-fluoro-5-(2-(4-methylpiperazin-1-yl)ethoxy)benzyl)amino)-1-oxoisoindolin-2-yl)piperidine-2,6-dione]	< 50%	–
> 6.52	–	[2H][C@]1(N2Cc3c(OCc4cc(OC)ccc4F)cccc3C2=O)CCC(=O)NC1=O [Compound A379, (S)-3-deuterium-3-(4-((2-fluoro-5-methoxybenzyl)oxy)-1-oxoisoindolin-2-yl)piperidine-2,6-dione]	< 50%	–
> 6.52	–	[2H][C@]1(N2Cc3c(OCc4cccc(OC)c4F)cccc3C2=O)CCC(=O)NC1=O [Compound A380, (S)-3-deuterium-3-(4-((2-fluoro-3-methoxybenzyl)oxy)-1-oxoisoindolin-2-yl)piperidine-2,6-dione]	< 50%	–
> 6.52	–	Nc1cccc(CNc2cccc3c2CN(C2CCC(=O)NC2=O)C3=O)c1F (centres unmarked) [Compound A384, 3-(4-((3-amino-2-fluorobenzyl)amino)-1-oxoisoindolin-2-yl)piperidine-2,6-dione]	≥ 50%	–
> 6.52	–	CNc1cccc(COc2cccc3c2CN(C2CCC(=O)NC2=O)C3=O)c1F (centres unmarked) [Compound A385, 3-(4-((2-fluoro-3-(methylamino)benzyl)oxy)-1-oxoisoindolin-2-yl)piperidine-2,6-dione]	≥ 50%	–
> 6.52	–	CNc1ccc(F)c(CNc2cccc3c2CN(C2CCC(=O)NC2=O)C3=O)c1 (centres unmarked) [Compound A387, 3-(4-((2-fluoro-5-(methylamino)benzyl)amino)-1-oxoisoindolin-2-yl)piperidine-2,6-dione]	≥ 50%	–
> 6.52	–	CC(=O)Nc1cccc(CNc2cccc3c2CN(C2CCC(=O)NC2=O)C3=O)c1F (centres unmarked) [Compound A388, N-(3-(((2-(2,6-dioxopiperidin-3-yl)-1-oxoisoindolin-4-yl)amino)methyl)-2-fluorophenyl)acetamide]	≥ 50%	–
> 6.52	–	NS(=O)(=O)c1cccc(CNc2cccc3c2CN(C2CCC(=O)NC2=O)C3=O)c1F (centres unmarked) [Compound A389, 3-(((2-(2,6-dioxopiperidin-3-yl)-1-oxoisoindolin-4-yl)amino)methyl)-2-fluorobenzenesulfonamide]	< 50%	–
≤ 6.52	–	CNc1ccc(F)c(COc2cccc3c2CN(C2CCC(=O)NC2=O)C3=O)c1 (centres unmarked) [Compound A390, 3-(4-((2-fluoro-5-(methylamino)benzyl)oxy)-1-oxoisoindolin-2-yl)piperidine-2,6-dione]	≥ 50%	–
≤ 6.52	–	Nc1ccc(F)c(CNc2cccc3c2CN(C2CCC(=O)NC2=O)C3=O)c1 (centres unmarked) [Compound A391, 3-(4-((5-amino-2-fluorobenzyl)amino)-1-oxoisoindolin-2-yl)piperidine-2,6-dione]	≥ 50%	–
> 6.52	–	[2H][C@@]1(N2Cc3c(OCc4ccc(OC)cc4F)cccc3C2=O)CCC(=O)NC1=O [Compound A392, (R)-3-deuterium-3-(4-((2-fluoro-4-methoxybenzyl)oxy)-1-oxoisoindolin-2-yl)piperidine-2,6-dione]	≥ 50%	–
> 6.52	–	[2H][C@]1(N2Cc3c(OCc4ccc(OC)cc4F)cccc3C2=O)CCC(=O)NC1=O [Compound A393, (S)-3-deuterium-3-(4-((2-fluoro-4-methoxybenzyl)oxy)-1-oxoisoindolin-2-yl)piperidine-2,6-dione]	< 50%	–
≤ 6.52	–	O=C1CCC(N2Cc3c(NCc4ccc(O)cc4F)cccc3C2=O)C(=O)N1 (centres unmarked) [Compound A396, 3-(4-((2-fluoro-4-hydroxybenzyl)amino)-1-oxoisoindolin-2-yl)piperidine-2,6-dione]	< 50%	–
> 6.52	–	O=C1CCC(N2Cc3c(OCc4cc(CN5CCOCC5)ccc4F)cccc3C2=O)C(=O)N1 (centres unmarked) [Compound A398, 3-(4-((2-fluoro-5-(morpholinomethyl)benzyl)oxy)-1-oxoisoindolin-2-yl)-piperidine-2,6-dione]	≥ 50%	–
> 6.52	–	[2H][C@]1(N2Cc3c(NCc4cc(CN5CCOCC5)ccc4F)cccc3C2=O)CCC(=O)NC1=O [Compound A401, (S)-3-deuterium-3-(4-((2-fluoro-5-(morpholinomethyl)benzyl)amino)-1-oxoisoindolin-2-yl)piperidine-2,6-dione]	≥ 50%	–
≤ 6.52	–	O=C1CCC(N2Cc3c(NCc4ccc(CN5CCOCC5)cc4)cc(F)cc3C2=O)C(=O)N1 (centres unmarked) [Compound A405, 3-(6-fluoro-4-((4-(morpholinomethyl)benzyl)amino)-1-oxoisoindolin-2-yl)piperidine-2,6-dione]	< 50%	–
–	> 6.52	[2H]C1(N2Cc3c(OCc4ccc(CN5CCOCC5)cc4F)cccc3C2=O)CCC(=O)NC1=O (centres unmarked) [Compound A425, 3-deuterium-3-(4-((2-fluoro-5-(morpholinomethyl)benzyl)oxy)-1-oxoisoindolin-2-yl)piperidine-2,6-dione]	–	≥50%
–	> 6.52	[2H]C1(N2Cc3c(NCc4ccc(CN5CCOCC5)cc4F)cccc3C2=O)CCC(=O)NC1=O (centres unmarked) [Compound A426]	–	≥50%

SMILES	pIC50 ([1]; Homo sapiens, MM1.S)	pIC50 [1]	inhibition at 0.1 µM (TNF-α)	Inhibitory Rate on TNF-α (%) (TNF-α)
CNC(=O)Oc1ccc(F)c(CNc2cccc3c2CN(C2CCC(=O)NC2=O)C3=O)c1 (centres unmarked) [Compound A371, 3-(((2-(2,6-Dioxopiperidin-3-yl)-1-oxoisoindolin-4-yl)amino)methyl)-4-fluorophenyl methylcarbamate]	> 6.52	–	≥ 50%	–
O=C1CCC(N2Cc3c(NCc4cc(OCCOC(=O)N5CCCC5)ccc4F)cccc3C2=O)C(=O)N1 (centres unmarked) [Compound A374, 2-(3-(((2-(2,6-dioxopiperidin-3-yl)-1-oxoisoindolin-4-yl)amino)methyl)-4-fluorophenoxy)ethyl pyrrolidine-1-carboxylate]	> 6.52	–	≥ 50%	–
CN(C)C(=O)Oc1ccc(F)c(CNc2cccc3c2CN(C2CCC(=O)NC2=O)C3=O)c1 (centres unmarked) [Compound A378, 3-(((2-(2,6-dioxopiperidin-3-yl)-1-oxoisoindolin-4-yl)amino)methyl)-4-fluorophenyl dimethylcarbamate]	≤ 6.52	–	< 50%	–

Reference: patent US10017492B2 (KANGPU BIOPHARMACEUTICALS, LTD., priority 2014, dated 2018)
